# Data reported in patent publication US20230365602A1, “COMPOUND FOR USE IN THE TREATMENT OF PROTOZOAL DISEASES AND PROCESS FOR PRODUCTION OF SAID COMPOUND” (QUADREL S.R.L., priority 2020, published 2023).
# Where two headings read alike, the source gives them in different places.
# Experiments:
# [1] = system: T. b. brucei L427 WT Blood-Stream Form; experiment: Anti-parasitic activity against T. b. brucei blood-stream form (resazurin 72 h assay); type: cell-based; conditions: for IC50: 72 h, read-out: Dose Response Curves IC50 ± SD (μM)
# CYP2D6 = CYP2D6 (Homo sapiens, UniProt P10635); experiment: Early toxicity: CYP2D6 inhibition; type: in vitro ADME; conditions: human, mean ± SD, Table 4a
# [2] = Maximum tolerated dose and dose range finding, 7 days oral gavage; conditions: for average weight loss at the end of the experiment: 7 days; for MTD at 7 days: BALB/c, mouse, in vivo, oral
# Excerpt: The primary objective of the dose range finding study is to establish the maximum tolerated dose (MTD) as determined by parameters such as clinical signs and reductions in body weight and food consumption, and to provide the data for appropriate dose selection in subsequent regulatory toxicology studies.
# mitochondria = experiment: Early toxicity: mitochondrial toxicity; type: cell-based; conditions: for Ang % Toxicity Mitochondria: Table 5
# [3] = Cytotoxicity, Human Monocytic Cell Line THP1; type: cell-based
# Excerpt: (§1) The in vitro antiparasitic activity of compound 5-cyclopentadecylpentyl (2-(trimethylammonio)ethyl) phosphate (19) against L. infantum (2 species), L. amazonensis, L. donovani and L. major is presented in Table 3, as well as the toxicity against the human monocytic cell Line THP1 and PMA-differentiated THP-1 cells.
# Human Erythrocytes = experiment: In vitro Hemolytic Activity in Human Erythrocytes; type: cell-based; conditions: for Hemolysis at 100 μM (%) / Hemolysis, HC50: human erythrocytes
# Description: The assay, which is an indicator of the toxic insult of a compound on the erythrocyte membrane is performed essentially as described in (Calogeropoulou T. et al., J. Med. Chem. 2008, 51, 897-908). […] [table]
# [4] = system: L. donovani 1SR intracellular amastigotes; experiment: Anti-leishmanial activity, L. donovani intracellular amastigotes; type: cell-based; conditions: Leishmania donovani; read-out: L. donovani 1SR intracellular amastigotes IC50 ± SEM
# Excerpt: as §1
# [5] = system: L. major SASKH intracellular amastigotes; experiment: Anti-leishmanial activity, L. major intracellular amastigotes; type: cell-based; conditions: Leishmania major; read-out: L. major SASKH intracellular amastigotes IC50 ± SEM
# Excerpt: as §1
# HDAC9 = HDAC9 (Homo sapiens, UniProt Q9UKV0); experiment: HDAC9 activity inhibition; type: biochemical
# A549 = experiment: Early toxicity: A549 cell growth; type: cell-based; conditions: for Avg % Cell growth A549: Table 5
# CYP1A2 = molecular target: T1, CYP1A2 (Homo sapiens, UniProt P05177); experiment: Early toxicity: CYP1A2 inhibition; type: in vitro ADME; conditions: human, mean ± SD, Table 4a
# T1 sequence (P05177 1-516): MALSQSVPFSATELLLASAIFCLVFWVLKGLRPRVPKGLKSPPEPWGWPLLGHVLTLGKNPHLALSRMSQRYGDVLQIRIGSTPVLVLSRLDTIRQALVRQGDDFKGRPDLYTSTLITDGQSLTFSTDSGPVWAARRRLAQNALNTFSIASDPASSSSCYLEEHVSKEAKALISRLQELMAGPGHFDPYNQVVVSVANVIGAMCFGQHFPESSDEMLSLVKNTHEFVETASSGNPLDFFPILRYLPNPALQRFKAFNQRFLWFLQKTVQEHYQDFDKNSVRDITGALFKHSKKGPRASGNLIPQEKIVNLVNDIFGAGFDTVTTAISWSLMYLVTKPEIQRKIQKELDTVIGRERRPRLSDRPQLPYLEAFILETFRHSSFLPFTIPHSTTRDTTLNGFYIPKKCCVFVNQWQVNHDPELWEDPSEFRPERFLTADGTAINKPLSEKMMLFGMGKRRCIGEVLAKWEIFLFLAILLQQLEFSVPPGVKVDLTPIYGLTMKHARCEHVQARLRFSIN
# [6] = system: PMA-differentiated THP-1 cells; experiment: Toxicity MTT assay in PMA-differentiated THP-1 cells; type: cell-based, human; conditions: for Toxicity MTT assay in PMA-differentiated THP-1 cells: Table 5
# Excerpt: (§2) The in vitro antiparasitic activity against L. infantum (MHOM/MA/67/ITMAP-263) and the toxicity against THP-1 macrophages is presented in Table 1.
# [7] = as above; type: cell-based, human; conditions: human, PMA-differentiated THP-1 cells (macrophages); for CC50: THP-1 macrophages, Table 1, read-out: Toxicity CC50 ± SD or NOAEL; for IC50: Table 4b, read-out: Cytotoxicity THP-1 (IC50)
# Excerpt: as §2
# [8] = system: L. infantum intracellular amastigotes LEM235; experiment: Anti-leishmanial activity, L. infantum LEM235 intracellular amastigotes; type: cell-based; conditions: for IC50: Leishmania infantum, read-out: L. infantum intracellular amastigotes LEM235 IC50 ± SEM
# Excerpt: as §1
# CYP2C19 = CYP2C19 (Homo sapiens, UniProt P33261); experiment: Early toxicity: CYP2C19 inhibition; type: in vitro ADME; conditions: human, mean ± SD, Table 4a
# Leishmania infantum = experiment: Efficacy in mice infected with Leishmania infantum, 10-day treatment; type: in vivo, BALB/c mice; conditions: 10 consecutive days; for parasite burden in the spleen: 20 mg/kg and 10 mg/kg
# Description: (A) Experimental approach; (B) and (C) are graphic presentations of parasite burden in the spleen and the liver, respectively, evaluated by limiting dilution assay.
# The treatments were reduced to 10 consecutive days at doses of 2.5, 5, 10 or 20 mg/Kg/day (FIG. 3).
# HDAC4 = HDAC4 (Homo sapiens, UniProt P56524); experiment: HDAC4 activity inhibition; type: biochemical
# [9] = Apparent solubility by nephelometry; type: physicochemical; conditions: kinetic from dmso stock
# CYP2C19, sequence (P33261 whole entry): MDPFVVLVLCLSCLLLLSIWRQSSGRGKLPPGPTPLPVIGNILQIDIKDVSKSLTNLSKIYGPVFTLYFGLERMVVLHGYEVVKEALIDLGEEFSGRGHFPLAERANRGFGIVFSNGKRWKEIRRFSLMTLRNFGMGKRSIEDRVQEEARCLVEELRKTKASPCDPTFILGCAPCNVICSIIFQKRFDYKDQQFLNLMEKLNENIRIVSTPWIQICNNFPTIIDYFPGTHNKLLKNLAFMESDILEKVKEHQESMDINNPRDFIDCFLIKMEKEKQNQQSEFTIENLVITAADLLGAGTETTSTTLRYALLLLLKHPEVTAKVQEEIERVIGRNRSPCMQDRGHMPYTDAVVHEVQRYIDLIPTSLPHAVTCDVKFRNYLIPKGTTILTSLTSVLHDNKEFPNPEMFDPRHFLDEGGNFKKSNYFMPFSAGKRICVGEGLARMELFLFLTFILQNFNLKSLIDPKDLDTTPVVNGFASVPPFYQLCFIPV
# HDAC4, sequence (P56524 whole entry, species assumed): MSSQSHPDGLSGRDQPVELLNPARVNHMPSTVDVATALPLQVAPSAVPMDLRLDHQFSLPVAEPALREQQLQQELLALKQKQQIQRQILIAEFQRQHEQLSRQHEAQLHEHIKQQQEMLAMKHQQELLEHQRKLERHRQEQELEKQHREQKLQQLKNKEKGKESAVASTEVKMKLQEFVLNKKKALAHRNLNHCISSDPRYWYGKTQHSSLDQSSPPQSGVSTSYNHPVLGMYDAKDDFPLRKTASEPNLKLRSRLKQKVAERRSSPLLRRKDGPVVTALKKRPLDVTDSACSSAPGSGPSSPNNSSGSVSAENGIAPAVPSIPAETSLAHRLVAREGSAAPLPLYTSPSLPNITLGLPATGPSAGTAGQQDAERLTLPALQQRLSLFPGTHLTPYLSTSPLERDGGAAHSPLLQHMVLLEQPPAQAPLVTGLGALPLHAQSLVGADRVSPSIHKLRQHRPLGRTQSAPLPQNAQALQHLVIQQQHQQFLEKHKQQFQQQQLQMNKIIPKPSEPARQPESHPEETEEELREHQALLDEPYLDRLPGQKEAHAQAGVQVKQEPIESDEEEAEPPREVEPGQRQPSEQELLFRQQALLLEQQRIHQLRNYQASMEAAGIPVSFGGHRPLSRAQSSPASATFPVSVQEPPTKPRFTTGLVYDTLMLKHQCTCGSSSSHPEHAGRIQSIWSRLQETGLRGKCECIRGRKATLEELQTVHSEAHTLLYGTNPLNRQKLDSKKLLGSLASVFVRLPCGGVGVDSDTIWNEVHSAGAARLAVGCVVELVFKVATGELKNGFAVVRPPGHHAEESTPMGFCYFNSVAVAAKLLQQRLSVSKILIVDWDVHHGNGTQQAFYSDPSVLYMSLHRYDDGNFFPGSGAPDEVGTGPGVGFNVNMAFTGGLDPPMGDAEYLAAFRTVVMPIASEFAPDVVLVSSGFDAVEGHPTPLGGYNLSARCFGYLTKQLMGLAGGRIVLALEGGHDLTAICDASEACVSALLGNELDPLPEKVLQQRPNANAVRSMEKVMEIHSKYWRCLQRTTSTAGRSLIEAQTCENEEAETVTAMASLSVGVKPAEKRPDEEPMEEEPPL
# CYP2D6, sequence (P10635 whole entry): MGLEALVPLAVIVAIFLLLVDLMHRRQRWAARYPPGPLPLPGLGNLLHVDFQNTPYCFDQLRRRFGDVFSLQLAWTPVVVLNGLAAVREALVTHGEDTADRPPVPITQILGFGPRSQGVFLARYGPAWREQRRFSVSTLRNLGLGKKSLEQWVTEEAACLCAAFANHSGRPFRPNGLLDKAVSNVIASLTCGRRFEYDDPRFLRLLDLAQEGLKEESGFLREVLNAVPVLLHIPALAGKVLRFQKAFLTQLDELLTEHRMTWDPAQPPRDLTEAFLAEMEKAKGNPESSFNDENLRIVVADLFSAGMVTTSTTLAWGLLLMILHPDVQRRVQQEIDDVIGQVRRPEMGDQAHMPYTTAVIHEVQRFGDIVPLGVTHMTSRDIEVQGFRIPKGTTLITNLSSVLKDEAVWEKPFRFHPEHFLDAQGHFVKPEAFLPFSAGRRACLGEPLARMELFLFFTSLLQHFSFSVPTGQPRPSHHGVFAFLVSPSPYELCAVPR
# HDAC9, sequence (Q9UKV0 whole entry, species assumed): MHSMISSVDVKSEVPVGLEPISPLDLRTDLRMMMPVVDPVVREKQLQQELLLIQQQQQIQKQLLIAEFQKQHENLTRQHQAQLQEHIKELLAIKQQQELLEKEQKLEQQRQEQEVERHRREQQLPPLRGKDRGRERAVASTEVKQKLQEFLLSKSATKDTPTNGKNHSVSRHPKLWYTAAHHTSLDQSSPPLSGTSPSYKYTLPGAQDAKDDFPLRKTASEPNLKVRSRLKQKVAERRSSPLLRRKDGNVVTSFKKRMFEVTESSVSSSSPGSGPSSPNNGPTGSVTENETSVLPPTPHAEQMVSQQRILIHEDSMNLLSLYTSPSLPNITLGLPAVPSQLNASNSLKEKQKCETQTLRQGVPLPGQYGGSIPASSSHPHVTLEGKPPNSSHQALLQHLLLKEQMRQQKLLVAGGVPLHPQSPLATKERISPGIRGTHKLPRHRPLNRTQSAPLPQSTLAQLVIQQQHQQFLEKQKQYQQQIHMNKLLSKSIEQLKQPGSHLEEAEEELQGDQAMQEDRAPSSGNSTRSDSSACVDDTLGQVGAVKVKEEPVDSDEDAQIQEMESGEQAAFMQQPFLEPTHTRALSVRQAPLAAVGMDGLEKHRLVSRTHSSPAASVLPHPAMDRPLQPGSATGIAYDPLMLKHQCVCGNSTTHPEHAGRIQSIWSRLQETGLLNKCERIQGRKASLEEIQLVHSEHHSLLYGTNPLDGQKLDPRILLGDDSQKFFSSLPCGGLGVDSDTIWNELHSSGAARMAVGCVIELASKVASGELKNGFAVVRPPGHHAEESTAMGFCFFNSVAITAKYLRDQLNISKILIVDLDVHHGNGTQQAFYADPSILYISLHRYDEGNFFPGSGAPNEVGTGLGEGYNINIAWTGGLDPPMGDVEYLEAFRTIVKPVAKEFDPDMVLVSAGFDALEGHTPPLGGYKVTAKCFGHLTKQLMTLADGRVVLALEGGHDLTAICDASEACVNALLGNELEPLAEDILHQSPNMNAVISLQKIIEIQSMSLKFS
Structure (SMILES),IC50 ([1]; Trypanosoma brucei) [µM],inhibition at 10 µM (CYP2D6) [%],average weight loss at the end of the experiment ([2]; 50 mg/kg daily oral gavage) [%],day from which weight loss was significant ([2]; 100 mg/kg daily oral gavage) [days],average weight loss at the end of the experiment ([2]; 100 mg/kg daily oral gavage) [%],MTD at 7 days [2] [mg/kg],Ang % Toxicity Mitochondria (mitochondria; 10 μM),Hemolysis at 100 μM (%) (Human Erythrocytes; 100 μM),"Hemolysis, HC50 (Human Erythrocytes) [µM]",IC50 [4] [µM],IC50 [5] [µM],Avg % Cell growth A549 (A549; 10 μM),inhibition at 10 µM (CYP1A2) [%],Toxicity MTT assay in PMA-differentiated THP-1 cells [6] [µM],CC50 [7] [µM],IC50 [7] [µM],IC50 [8] [µM],inhibition at 10 µM (CYP2C19) [%],"reduction of parasite burden, spleen (Leishmania infantum; 2.5 mg/kg) [%]","reduction of parasite burden, spleen (Leishmania infantum; 5 mg/kg) [%]",further results
"CCCCCCCCCCCCCCCCOP(=O)([O-])OCC[N+](C)(C)C [Miltefosine, hexadecylphosphocholine, reference compound]",33.9 ± 0.5,30.8 ± 16.7,11±3,4,19±6,50,3.99 ± 8.95 (10 μM) %,96.1,38.3 ± 2.8,12.7 ± 3.3,43.7 ± 8.34,95.80 ± 15.78 (10 μM) %,-20.6 ± 11.8,15.9 ± 1.2,15.9 ± 1.2,15.9 ± 1.2,6.7 ± 1,7.92 ± 15.5,64±33,70±36,"food intake compared to the equivalent treatment of compound 19 ([2]; 100 mg/kg): significant lesser food intake; % mitochondrial toxicity (mitochondria; at 1 μM): 3.39 ± 8.95%; CC50 [3]: 28.6 ± 2.48 µM; inhibition of the activity of HDAC9 (HDAC9; 10 μM): did not inhibit; % cell growth A549 (A549; at 1 μM): 95.8 ± 15.78%; parasite burden in the spleen (Leishmania infantum): not able to maintain parasite burden under the detection limit; average reduction of parasite load, spleen (Leishmania infantum; 20 and 10 mg/kg): > 99%; reduction of average parasite burden, liver (Leishmania infantum; all tested concentrations): more than 98%; inhibition of the activity of HDAC4 (HDAC4; 10 μM): did not inhibit; solubility ([9]; pH 1.6, simulated gastric fluid): 12.5 µM; solubility ([9]; pH 5, fessif): > 100 µM; solubility ([9]; pH 6.5, fassif): > 100 µM; solubility ([9]; pH 7.4, aqueous buffer): 25 µM; solubility ([9]; water): 25 µM"
"C[N+](C)(C)CCOP(=O)([O-])OCCCCCC1CCCCCCCCCCCCCC1 [Compound 19, 5-cyclopentadecylpentyl (2-(trimethylammonio)ethyl) phosphate]",4.47 ± 0.2,-50.7 ± 3.45,7±8,5,11±4,100,−3.22 ± 5.44 (10 μM) %,8.7,>100,24 ± 3.8,15.5 ± 1.5,108.28 ± 0.09 (10 μM) %,-32.1 ± 9.3,>100,> 100,> 100,0.7 ± 0.4,-18.2 ± 7.01,91±6,99±1,"activity against T. b. brucei blood-stream form ([1]; Table 2): unexpectedly high activity in the low micromolar range; inhibition at 10 µM ([1]; Trypanosoma brucei, read-out: Single Dose Assay 10 μM Mean Inhibitory Activity (%) ± SD): 99 ± 1%; Selectivity Index CC50/IC50 or NOAEL/IC50 ([1]; toxicity / T. b. brucei IC50, Table 2): >22; % mitochondrial toxicity (mitochondria; 10 μM, 100% mitotoxic, 0% not mitotoxic): −3.22 ± 5.44%; CC50 ([3]; human monocytic cell line THP1, read-out: Cytotoxicity-Human Monocytic Cell Line THP1 CC50 ± SD): > 500 µM; percentage of hemolytic activity lower than miltefosine (Human Erythrocytes; 100 μM): approximately 11 fold; inhibition of the activity of HDAC9 (HDAC9; 100 μM): does not inhibit; % cell growth A549 (A549; 10 μM, 100% = not cytotoxic, 0% = cytostatic, −100% = cytotoxic): 108.28 ± 0.09%; CC50 ([6]; MTT assay in PMA-differentiated THP-1 cells, Table 3, read-out: Toxicity CC50 ± SD): > 100 µM; CC50 ([6]; Table 2, read-out: Toxicity CC50 ± SD or NOAEL): > 100 µM; Selectivity Index CC50/IC50 ([8]; THP1 CC50 / IC50 L. infantum LEM235): 714; parasite burden in the spleen (Leishmania infantum): able to maintain parasite burden below the detection limit; parasite load in the liver (Leishmania infantum; all treatments (20, 10, 5, 2.5 mg/kg)): maintained the parasite load under the detection limit; inhibition of the activity of HDAC4 (HDAC4; 100 μM): does not inhibit; solubility ([9]; FaSSIF, pH 6.5, fassif, read-out: Solubility in FaSSIF (pH = 6.5)): > 100 µM; solubility ([9]; FeSSIF, pH 5, fessif, read-out: Solubility in FeSSIF (pH = 5)): > 100 µM; solubility ([9]; PBS, pH 7.4, aqueous buffer, read-out: Solubility in PBS (pH = 7.4)): < 10 µM; solubility ([9]; simulated gastric fluid (SGF), simulated gastric fluid, SGF, pH 1.6, read-out: Solubility in SGF (pH = 1.6)): 12.5 µM; solubility ([9]; water, H2O, read-out: Solubility in H2O): < 10 µM"
